# According to ChEMBL document CHEMBL3351878, “Carbonic Anhydrase Inhibition with Benzenesulfonamides and Tetrafluorobenzenesulfonamides Obtained via Click Chemistry” (ACS Med Chem Lett, 2014):
# What was measured:
# Carbonic anhydrase 9 = Carbonic anhydrase 9 (Homo sapiens, UniProt Q16790)
# Carbonic anhydrase 1 = Carbonic anhydrase 1 (Homo sapiens, UniProt P00915); experiment: Inhibition of recombinant human carbonic anhydrase 1 preincubated for 15 mins by stopped-flow CO2 hydrase Assay
# Carbonic anhydrase 12 = Carbonic anhydrase 12 (Homo sapiens, UniProt O43570)
# Carbonic anhydrase 12, sequence (O43570 whole entry): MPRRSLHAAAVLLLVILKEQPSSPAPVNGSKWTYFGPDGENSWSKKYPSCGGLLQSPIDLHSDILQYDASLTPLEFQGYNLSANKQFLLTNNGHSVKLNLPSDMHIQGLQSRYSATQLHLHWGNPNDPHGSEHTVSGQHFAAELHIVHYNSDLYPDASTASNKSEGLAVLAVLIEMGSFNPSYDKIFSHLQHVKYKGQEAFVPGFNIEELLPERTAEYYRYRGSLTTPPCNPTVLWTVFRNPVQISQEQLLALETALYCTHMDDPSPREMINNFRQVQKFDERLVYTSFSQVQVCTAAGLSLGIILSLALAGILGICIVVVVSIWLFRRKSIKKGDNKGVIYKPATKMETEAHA
# Carbonic anhydrase 1, sequence (P00915 whole entry): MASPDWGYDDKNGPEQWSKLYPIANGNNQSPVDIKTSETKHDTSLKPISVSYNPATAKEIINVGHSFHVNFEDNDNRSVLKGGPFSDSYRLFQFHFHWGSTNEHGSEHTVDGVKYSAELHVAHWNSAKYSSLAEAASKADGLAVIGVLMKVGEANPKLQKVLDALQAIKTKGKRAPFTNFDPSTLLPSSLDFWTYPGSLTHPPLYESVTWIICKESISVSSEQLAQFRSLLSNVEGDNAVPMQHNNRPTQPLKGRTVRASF
Ki (Carbonic anhydrase 9),Ki (Carbonic anhydrase 1),Ki (Carbonic anhydrase 12),Compound
5 nM,–,–,CCCCCc1ccc(-c2cn(-c3ccc(S(N)(=O)=O)cc3)nn2)cc1
6.9 nM,–,–,NS(=O)(=O)c1ccc(-n2cc(CCBr)nn2)cc1
6.2 nM,–,–,NS(=O)(=O)c1ccc(-n2cc(CCCCl)nn2)cc1
5.4 nM,–,–,NS(=O)(=O)c1ccc(-n2cc(CCCCCl)nn2)cc1
10.5 nM,–,–,CC(C)(C)OC(=O)NCc1cn(-c2ccc(S(N)(=O)=O)cc2)nn1
12.1 nM,–,–,NCc1cn(-c2ccc(S(N)(=O)=O)cc2)nn1
38.9 nM,–,–,CCCCCc1ccc(-c2cn(-c3c(F)c(F)c(S(N)(=O)=O)c(F)c3F)nn2)cc1
4.5 nM,–,–,NS(=O)(=O)c1c(F)c(F)c(-n2cc(CCCCCl)nn2)c(F)c1F
–,368 nM,3.6 nM,Cc1ccc(-c2cn(-c3ccc(S(N)(=O)=O)cc3)nn2)cc1
25.9 nM,392 nM,6 nM,NS(=O)(=O)c1ccc(-n2cc(-c3ccccc3)nn2)cc1
